Data as given in ChEMBL document CHEMBL2311379, “Design and synthesis of 2-(3-alkylaminophenyl)-6-(pyrrolidin-1-yl)quinolin-4-ones as potent antitumor agents” (Bioorg Med Chem Lett, 2013).
Calls of active or inactive are those of the source. No cut-off for these calls is given here.

Columns and labels:
Detroit 551 = test: Cytotoxicity against human Detroit 551 cells; format: cell-based
[1] = Cytotoxicity against human H460 cells; format: functional, cell-based; conditions: NCI-H460
[2] = Cytotoxicity against human Hep3B cells; format: functional, cell-based, Hep 3B2
HL-60 = test: Cytotoxicity against human HL60 cells; format: functional, cell-based
[3] = Cytotoxicity against human NCI60 cells; format: functional
Hep 3B2 = test: Antitumor activity against human Hep3B cells xenografted in nude mouse assessed as inhibition of tumor growth at 10 mg/kg, ip qd administered for 5 days per week for 4 consecutive weeks; format: functional, organism-based; set-up: dose 10 mg/kg
[4] = Antitumor activity against human Hep3B cells xenografted in nude mouse assessed as inhibition of tumor growth at 20 mg/kg, ip qd administered for 5 days per week for 4 consecutive weeks; format: functional, Hep 3B2; conditions: 120 h, route intraperitoneal, read-out: TGI
Mus musculus [5] = test: Toxicity in human Hep3B cells xenografted nude mouse assessed as mouse body weight changes at 10 mg/kg, ip qd administered for 5 days per week for 4 consecutive weeks; format: organism-based, Hep 3B2; set-up: dose 10 mg/kg, route intraperitoneal; conditions: in vivo, 120 h
Mus musculus [6] = test: Toxicity in human Hep3B cells xenografted nude mouse assessed as mouse body weight changes at 20 mg/kg, ip qd administered for 5 days per week for 4 consecutive weeks; format: organism-based, Hep 3B2; set-up: dose 20 mg/kg, route intraperitoneal; conditions: in vivo, 120 h

Row | SMILES | IC50 (Detroit 551) | IC50 [1] | IC50 [2] | IC50 (HL-60) | GI50 [3] | TGI (Hep 3B2) | inhibition in vivo at 20 mg/kg [4] | Activity (Mus musculus [5]) | Activity (Mus musculus [6])
1 | CCNc1cccc(-c2cc(=O)c3cc(N4CCCC4)ccc3[nH]2)c1 | > 10000 nM | 20 nM | 20 nM | 5 nM | – | – | – | – | –
2 | CN(C)c1cccc(-c2cc(=O)c3cc(N4CCCC4)ccc3[nH]2)c1 | > 1000 nM | 13 nM | 15 nM | 5 nM | – | – | – | – | –
3 | COc1cccc(-c2cc(O)c3cc(N4CCCC4)ccc3n2)c1 | – | – | – | – | 1.91 nM | – | – | – | –
4 | CNc1cccc(-c2cc(=O)c3cc(N4CCCC4)ccc3[nH]2)c1 | > 10000 nM | 35 nM | 21 nM | 6 nM | – | Active | 70% | Non-toxic | Non-toxic
